Data taken from PMC12903969, “Discovery of a Novel and Potent Kir4.1 Inhibitor as a Safe and Rapid‐Onset Antidepressant Agent in Mice” (Advanced Science, 2025).
Several values for one entry are separate records, joined by “and”; a condition that tells them apart may be missing. Equal entries are not always repeated.

What was measured:
[1] = target: T1, 5-HTT (serotonin transporter, SERT) (Homo sapiens, UniProt P31645); test: 5-HTT functional assay (fluorescent neurotransmitter transporter uptake); format: cell-based; parameters: SERT inhibition, replicates: unit not given here
T1 construct: expressed in transfected cells
T1 sequence (P31645 whole entry): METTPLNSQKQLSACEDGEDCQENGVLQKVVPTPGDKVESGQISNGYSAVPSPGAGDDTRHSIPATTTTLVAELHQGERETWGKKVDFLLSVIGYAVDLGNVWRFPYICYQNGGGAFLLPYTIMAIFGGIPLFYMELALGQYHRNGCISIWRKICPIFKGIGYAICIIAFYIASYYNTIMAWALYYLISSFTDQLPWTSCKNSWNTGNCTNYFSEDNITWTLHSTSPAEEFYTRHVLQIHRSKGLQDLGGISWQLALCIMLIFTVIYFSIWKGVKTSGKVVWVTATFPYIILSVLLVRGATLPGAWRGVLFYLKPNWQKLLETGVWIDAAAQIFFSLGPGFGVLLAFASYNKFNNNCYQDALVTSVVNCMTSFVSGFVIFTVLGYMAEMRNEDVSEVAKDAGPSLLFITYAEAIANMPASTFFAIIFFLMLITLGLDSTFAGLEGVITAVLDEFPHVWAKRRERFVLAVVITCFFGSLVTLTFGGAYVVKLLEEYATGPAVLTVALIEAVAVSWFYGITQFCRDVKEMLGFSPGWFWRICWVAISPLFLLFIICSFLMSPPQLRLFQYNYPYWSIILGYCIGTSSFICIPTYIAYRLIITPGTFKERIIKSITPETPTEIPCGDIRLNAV
Procedure: The 5‐HTT/DAT functional assays were commissioned by Elsevier Science and Technology Co., Ltd. (Beijing). A fluorescence‐based neurotransmitter assay was conducted using a Neurotransmitter Transporter Uptake Assay Kit (Molecular Devices, R8174), according to the manufacturer's protocol. Flp‐in T‐rex 293 cells transiently expressing the human norepinephrine transporter and HEK293 cells stably expressing the human dopamine or serotonin transporters were seeded in PDL‐coated 384‐well plates and incubated overnight. Subsequently, the medium was removed, and the cells were treated with 16 µL of compounds diluted in assay buffer for 0.5 h at 37 °C. Centanafadine and 0.1% DMSO served as positive and negative controls, respectively. Then, 16 µL of dye mix prepared in 1× Hanks’ Balanced Salt Solution was added to each well and incubated at 37 °C for 1 h. Finally, the data point was acquired via a fluorescence plate reader with excitation at 450 nm and emission at 528 nm.

Kir4.1 cKO mice = test: NSFT in astrocyte-specific Kir4.1 cKO mice; format: in vivo; conditions: 10 mg kg−1 i.p.
From the text: Male C57BL/6J mice (6–10 weeks old) and male CD‐1 mice (4–6 months old) were purchased from Shanghai Shengchang Biotechnology Co., Ltd. Kcnj10 ^flox/flox mice were generated by the Cyagen Company (Suzhou, China). The Cas9 protein, two gRNAs (gRNA‐A1: […], gRNA‐A2: […]) and a donor vector containing two loxP sequences flanking exon 2 of mouse Kcnj10 were co‐injected into fertilized eggs. The embryos were transferred to recipient female mice to obtain F0 mice. The genotype was confirmed by PCR using two pairs of primers (F1: 5’‐[…]‐3’, R1: 5’‐[…]‐3’; F2: 5’‐[…]‐3’, R2: 5’‐[…]‐3’) and sequencing. The F0 founder mice were mated with C57BL/6J mice to produce heterozygous F1 offspring. Subsequent intercrosses of F1 heterozygous mice ultimately produced F2 homozygous mice with the Kcnj10 ^flox/flox genotype. Tamoxifen‐induced conditional transgenic mice with Kir4.1 deletion in astrocytes were generated by crossing Aldh1l1‐Cre/ERT2 mice with homozygous Kcnj10 ^flox/flox mice.^[ [32] ^] […]
The mice were individually housed in new cages and deprived of food for 24 h. […] The latency to start chewing food was recorded within 5 min. Immediately thereafter, the mice were placed back in their home cage with pre‐measured food, and the amount consumed in the next 5 min was used as a baseline to account for appetite changes that might affect the outcome.

C57BL/6J mice = test: Seizure threshold measurement in 6-Hz seizure test; format: in vivo; parameters: key to seizure incidence, Multiple dose-6 Hz / seizure incidence, Single dose-6 Hz: % of mice showing seizures; conditions: for seizure incidence, Multiple dose-6 Hz / seizure incidence, Single dose-6 Hz: JX3212 10 mpk
From the text: Male C57BL/6J mice were subjected to corneal electroshock stimulation using a Grass S48 stimulator (Grass Technologies) with standardized parameters: frequency, 6 Hz; rectangular pulse width, 0.2 ms; and duration, 3 s. Seizure activity was operationally defined as the occurrence of any of the following behaviors: forelimb clonus, postictal immobility, facial myoclonus, staring behavior, orofacial automatization (chewing/unilateral pawing), or Straub tail posture. […] The seizure incidence was compared between the vehicle‐ and JX3212‐treated groups, with the CS50 threshold calculated as the minimal current intensity required to induce seizures in 50% of the subjects via probit analysis.

mice [2] = test: Y-maze; format: in vivo; conditions: chronic 10 mg kg−1 per day
Procedure: This test was designed to evaluate spatial working memory. Briefly, mice were individually placed in a symmetrical Y‐maze and allowed to explore for 8 min. Entries were counted only when both hind paws crossed the arm threshold. Correct spatial alternation was defined as an entry into all three arms in an uninterrupted sequence (e.g., ABC, BCA or CAB each representing one alternation). The alternation percentage was derived as: [correct alternations/(total entries–2)] × 100%. After each session, the walls and floor of the maze were wiped with 75% ethanol and allowed to dry before the next animal was tested.

mice [3] = test: 21-day chronic administration: body weight, organ weight, serum biochemistry
[4] = 10 mg/kg, 21-day chronic administration, individual animals
[5] = serum, 10 mg/kg, 21-day chronic administration, individual animals

## c1ccc2c(c1)oc1ccc(Nc3ccnc(NCCCN4CCOCC4)n3)cc12 [JX3212, N^4-(dibenzo[b,d]furan-2-yl)-N^2-(3-morpholinopropyl)pyrimidine-2,4-diamine]
[1]
  IC50: 6.45 µM
[1]; concentration 3
  SERT inhibition, replicates: 13.3 and 7.67
[1]; concentration 10
  SERT inhibition, replicates: 17.62 and 13.2
[1]; concentration 30
  SERT inhibition, replicates: 16.11 and 14.3
[1]; concentration 100
  SERT inhibition, replicates: 16.51 and 15.81
[1]; concentration 300
  SERT inhibition, replicates: 18.52 and 16.01
[1]; concentration 1000
  SERT inhibition, replicates: 49.66 and 31.98
[1]; concentration 3000
  SERT inhibition, replicates: 51.87 and 29.87
[1]; concentration 10000
  SERT inhibition, replicates: 69.95 and 46.05
[1]; concentration 30000
  SERT inhibition, replicates: 87.23 and 70.86
[1]; concentration 100000 (unit not given)
  SERT inhibition, replicates: 112.04 and 105.72
Kir4.1 cKO mice
  NSFT latency in Kir4.1 cKO mice vs vehicle (in words): comparable latencies
C57BL/6J mice; 10 mg kg−1, single or 14-day consecutive administration
  seizure susceptibility, 6-Hz seizure model (in words): did not alter seizure susceptibility
C57BL/6J mice; stimulus 18 mA
  seizure incidence, Multiple dose-6 Hz: 25
C57BL/6J mice; stimulus 20 mA
  seizure incidence, Multiple dose-6 Hz: 50
  seizure incidence, Single dose-6 Hz: 22.22
C57BL/6J mice; stimulus 22 mA
  seizure incidence, Multiple dose-6 Hz: 75
  seizure incidence, Single dose-6 Hz: 50
C57BL/6J mice; stimulus 24 mA
  seizure incidence, Single dose-6 Hz: 57.14
C57BL/6J mice; stimulus 26 mA
  seizure incidence, Multiple dose-6 Hz: 87.5
  seizure incidence, Single dose-6 Hz: 85.71
Mice [2]
  Y-maze alternation percentage vs vehicle (in words): showed no effects
Mice [3]; 10 mg kg−1 per day, vs vehicle
  body weight during 21-day chronic administration (in words): no evident effect on body weight
Mice [3]; [4]
  Kidney/Body Weight Ratio (%): 1.122% and 1.187% and 1.1008% and 0.9864% and 1.07% (2×) and 1.145% and 1.0748% and 1.06% and 1.171%
  Liver/Body Weight Ratio (%): 5.072% and 4.477% and 4.872% and 4.814% and 4.623% and 5.084% and 4.1308% and 4.637% and 4.391% and 4.945%
Mice [3]; 10 mg/kg, day 7, individual animals
  Body weight: 24.2 (3×) and 24 and 25.6 and 25.4 and 23.8
Mice [3]; 10 mg/kg, day 8, individual animals
  Body weight: 24 and 25.9 and 24.2 (2×) and 24.4 and 25 and 26
Mice [3]; 10 mg/kg, day 9, individual animals
  Body weight: 25 and 24 and 26.3 and 25.6 (2×) and 24.7 and 24.1
Mice [3]; 10 mg/kg, day 10, individual animals
  Body weight: 26.3 and 25.4 (2×) and 24.1 and 25 and 25.5
Mice [3]; 21-day administration
  liver-to-body and kidney-to-body weight ratio (in words): no appreciable differences
  serum aspartate aminotransferase and urea levels (in words): comparable
  serum creatinine level (in words): marked decreases in creatinine levels
Mice [3]; [5]
  ALT: 36 and 35 and 41 and 32 and 37 and 33 and 31 and 29
  AST: 167 and 207 and 243 and 139 and 147 and 172 and 200 and 131 and 133 and 155
  Cr: 19 and 18 and 20 and 21 and 22 and 23
  Urea: 5.59 and 3.68 and 6 and 5.19 and 5.88 and 6.46 and 5.16 and 5.73 and 5.29 and 5.71
